Source: patent US20100209496A1, “LIQUID AND SEMI-SOLID PHARMACEUTICAL FORMULATIONS FOR ORAL ADMINISTRATION OF A SUBSTITUTED AMIDE” (priority 2006, published 2010)
Like-named read-outs stand apart in the source and are kept apart here. Marks after values point to notes of the source that are not given here.

Experiments:
[1] = Compound I Form I solubility in various liquid vehicles; assay type: physicochemical
[2] = Compound I chemical stability in various liquid vehicles at 40° C.; assay type: physicochemical; conditions: 40° C. vs −20° C. control
From the text: Stability of 3-[(3aR,4R,5S,7aS)-5-{(1R)-1-[3,5-bis(Trifluoromethyl)phenyl]ethoxy}-4-(4-fluorophenyl)-octahydro-2H-isoindol-2-yl]cyclopent-2-en-1-one, (Compound I) in Various Liquid Vehicles

[3] = Pharmacokinetics after oral administration of liquid filled capsules; assay type: in vivo, male Beagle dogs; conditions: male, Beagle, dog, plasma, 40 mg, 40 mg oral, Mean ± SD; for AUC(0-t): read-out: AUC0-24
[4] = liquid filled capsules with Imwitor742/Tween80 (75:25), male Beagle dogs
[5] = liquid filled capsules with Imwitor742:Tween80 (50:50), male Beagle dogs
[6] = liquid filled capsules with pure Imwitor742, male Beagle dogs

- Solubility ([1]; Form I, 0.5% Methylcellulose, Room Temp): 0.001 mg/g of formulation
- Solubility ([1]; Form I, 1:1 Imwitor:Tween + 1 eq HCl, Room Temp): >57 mg/g of formulation
- Solubility ([1]; Form I, Acconon MC-8, 35° C.): <1 mg/g of formulation
- Solubility ([1]; Form I, Capmul MCM C-8, 35° C.): 53 mg/g of formulation
- Solubility ([1]; Form I, Capmul PG-8, 35° C.): 50 mg/g of formulation
- Solubility ([1]; Form I, Capmul PG-12, 35° C.): 25 mg/g of formulation
- Solubility ([1]; Form I, Capryol PGMC, 30° C.): 29 mg/g of formulation
- Solubility ([1]; Form I, Capryol PGMC, Room Temp): >6 mg/g of formulation
- Solubility ([1]; Form I, Captex 200P, 35° C.): 2 mg/g of formulation
- Solubility ([1]; Form I, Corn Oil, Room Temp): <0.1 mg/g of formulation
- Solubility ([1]; Form I, Cremophor EL, Room Temp): 2 mg/g of formulation
- Solubility ([1]; Form I, Ethanol, Room Temp): 58 mg/g of formulation
- Solubility ([1]; Form I, Gelucire 44/14, 65° C.): 4 mg/g of formulation
- Solubility ([1]; Form I, Glycerin, Room Temp): <0.5 mg/g of formulation
- Solubility ([1]; Form I, Imwitor 308, 35° C.): 58 mg/g of formulation
- Solubility ([1]; Form I, Imwitor 642, 35° C.): 78 mg/g of formulation
- Solubility ([1]; Form I, Imwitor 742, 30° C.): 43 mg/g of formulation
- Solubility ([1]; Form I, Imwitor 742, 35° C.): 46 mg/g of formulation
- Solubility ([1]; Form I, Imwitor 742, Room Temp): >6 mg/g of formulation
- Solubility ([1]; Form I, Imwitor 988, 35° C.): 54 mg/g of formulation
- Solubility ([1]; Form I, Labrafil M1944CS, 35° C.): 4 mg/g of formulation
- Solubility ([1]; Form I, Labrafil M2125CS, 35° C.): 4 mg/g of formulation
- Solubility ([1]; Form I, Labrafil M2125CS, Room Temp): 5 mg/g of formulation
- Solubility ([1]; Form I, Labrasol, 35° C.): 11 mg/g of formulation
- Solubility ([1]; Form I, Labrasol, Room Temp): 7 mg/g of formulation
- Solubility ([1]; Form I, Miglyol 812, Room Temp): 0.4 mg/g of formulation
- Solubility ([1]; Form I, Olive Oil, Room Temp): <0.1 mg/g of formulation
- Solubility ([1]; Form I, PEG 400:water (92:8) + 1 eq HCl, Room Temp): 24 mg/g of formulation
- Solubility ([1]; Form I, PEG 400:water (92:8) + 1 eq NaOH, Room Temp): 1.3 mg/g of formulation
- Solubility ([1]; Form I, PEG 400:water (92:8), Room Temp): 1.0 mg/g of formulation
- Solubility ([1]; Form I, PEG 400, Room Temp): 2 mg/g of formulation
- Solubility ([1]; Form I, Peceol, 35° C.): 19 mg/g of formulation
- Solubility ([1]; Form I, Propylene Glycol, 35° C.): 8 mg/g of formulation
- Solubility ([1]; Form I, Propylene Glycol, Room Temp): 5 mg/g of formulation
- Solubility ([1]; Form I, Soybean Oil, Room Temp): <0.1 mg/g of formulation
- Solubility ([1]; Form I, Tween 20, Room Temp): 2 mg/g of formulation
- Solubility ([1]; Form I, Tween 80, Room Temp): 1 mg/g of formulation
- Solubility ([1]; Form I, Water, Room Temp): <0.0002 mg/g of formulation
- Solubility ([1]; Form I, pH 1.3 aqueous, Room Temp): 0.001 mg/g of formulation
- Solubility ([1]; Form I, pH 2.2 to 10.1 aqueous, Room Temp): <0.0002 mg/g of formulation
- Solubility ([1]; aqueous medium, read-out: aqueous solubility): < 0.2 µg/mL
- solubility in Miglyol 812 ([1]; relative to a fully efficacious amount of solubilized compound in a 500 mg capsule): not sufficiently soluble
- Chemical stability ([2]; 1 mg Compound I/g vehicle, 1:1 Imwitor 742:Tween 80 +0.05% PG + 0.05% BHA, 1 wk): 102.2 % claim
- Chemical stability ([2]; 1 mg Compound I/g vehicle, 1:1 Imwitor 742:Tween 80 +0.05% PG + 0.05% BHA, 18 wk): 94.7 % claim
- Chemical stability ([2]; 1 mg Compound I/g vehicle, 1:1 Imwitor 742:Tween 80 +0.05% PG + 0.05% BHT, 1 wk): 99.4 % claim
- Chemical stability ([2]; 1 mg Compound I/g vehicle, 1:1 Imwitor 742:Tween 80 +0.05% PG + 0.05% BHT, 18 wk): 93.7 % claim
- Chemical stability ([2]; 1 mg Compound I/g vehicle, 1:1 Imwitor 742:Tween 80 +0.05% PG + 0.05% NaSO3, 1 wk): 98.5 % claim
- Chemical stability ([2]; 1 mg Compound I/g vehicle, 1:1 Imwitor 742:Tween 80 +0.1% Ascorbic Acid Palmitate, 1 wk): 94.2 % claim
- Chemical stability ([2]; 1 mg Compound I/g vehicle, 1:1 Imwitor 742:Tween 80 +0.1% Ascorbic Acid Palmitate, 4 wk): 89.4 % claim
- Chemical stability ([2]; 1 mg Compound I/g vehicle, 1:1 Imwitor 742:Tween 80 +0.1% BHA, 1 wk): 98.4 % claim
- Chemical stability ([2]; 1 mg Compound I/g vehicle, 1:1 Imwitor 742:Tween 80 +0.1% BHA, 4 wk): 96.1 % claim
- Chemical stability ([2]; 1 mg Compound I/g vehicle, 1:1 Imwitor 742:Tween 80 +0.1% Propyl Gallate, 1 wk): 99.6 % claim
- Chemical stability ([2]; 1 mg Compound I/g vehicle, 1:1 Imwitor 742:Tween 80 +0.1% Propyl Gallate, 4 wk): 97.7 % claim
- Chemical stability ([2]; 1 mg Compound I/g vehicle, 1:1 Imwitor 742:Tween 80 +0.1% Propyl Gallate, 18 wk): 93.1 % claim
- Chemical stability ([2]; 1 mg Compound I/g vehicle, 1:1 Imwitor 742:Tween 80 +0.1% α-tocopherol, 1 wk): 86.7 % claim
- Chemical stability ([2]; 1 mg Compound I/g vehicle, 1:1 Imwitor 742:Tween 80 +0.1% α-tocopherol, 4 wk): 71.1 % claim
- Chemical stability ([2]; 1 mg Compound I/g vehicle, 1:1 Imwitor 742:Tween 80, 1 wk): 95.2 % claim
- Chemical stability ([2]; 1 mg Compound I/g vehicle, 1:1 Imwitor 742:Tween 80, 4 wk): 90.4 % claim
- Chemical stability ([2]; 1 mg Compound I/g vehicle, 1:1 Imwitor 742:Tween 80, 5 wk): 83.8 % claim
- Chemical stability ([2]; 1 mg Compound I/g vehicle, 1:1 Imwitor 742:Tween 80, 18 wk): 73.7 % claim
- Chemical stability ([2]; 1 mg Compound I/g vehicle, 6:4 Imwitor 742:Propylene Glycol, 1 wk): 100.2 % claim
- Chemical stability ([2]; 1 mg Compound I/g vehicle, 6:4 Imwitor 742:Propylene Glycol, 2 wk): 100.6 % claim
- Chemical stability ([2]; 1 mg Compound I/g vehicle, 6:4 Imwitor 742:Propylene Glycol, 4 wk): 100.0 % claim
- Chemical stability ([2]; 1 mg Compound I/g vehicle, 6:4 Imwitor 742:Propylene Glycol, 8 wk): 100.6 % claim
- Chemical stability ([2]; 1 mg Compound I/g vehicle, 9:1 Imwitor 742:Tween 80, 1 wk): 99.6 % claim
- Chemical stability ([2]; 1 mg Compound I/g vehicle, 9:1 Imwitor 742:Tween 80, 9.5 wk): 96.4 % claim
- Chemical stability ([2]; 1 mg Compound I/g vehicle, Capmul MCM C8, 1 wk): 99.0 % claim
- Chemical stability ([2]; 1 mg Compound I/g vehicle, Capmul MCM C8, 32.5 wk): 78.1 % claim
- Chemical stability ([2]; 1 mg Compound I/g vehicle, Capmul PG-8, 1 wk): 99.7 % claim
- Chemical stability ([2]; 1 mg Compound I/g vehicle, Imwitor 742, 1 wk): 99.8 % claim
- Chemical stability ([2]; 1 mg Compound I/g vehicle, Imwitor 742, 5 wk): 98.8 % claim
- Chemical stability ([2]; 1 mg Compound I/g vehicle, Imwitor 742, 9.5 wk): 99.8 % claim
- Chemical stability ([2]; 1 mg Compound I/g vehicle, Imwitor 742, 32.5 wk): 97.0 % claim
- Chemical stability ([2]; at 10 mg/g, Imwitor 742 + 0.75 eq HCl, 1 wk): 100.6 % claim
- Chemical stability ([2]; at 10 mg/g, Imwitor 742:Tween 80 +0.75 eq Benzenesulfonic Acid (acid not completely dissolved), 1 wk): 99.1* % claim
- Chemical stability ([2]; at 10 mg/g, Imwitor 742:Tween 80 +0.75 eq HCl, 1 wk): 95.2 % claim
- Chemical stability ([2]; at 10 mg/g, Imwitor 742:Tween 80 +0.75 eq Phosphoric Acid, 1 wk): 96.4 % claim
- Chemical stability ([2]; at 10 mg/g, Imwitor 742:Tween 80 +0.75 eq Sulfuric Acid, 1 wk): 82.9 % claim
- Chemical stability ([2]; at 10 mg/g, PEG 400 + 0.75 eq HCl, 1 wk): 60.3 % claim
- Chemical stability ([2]; at 10 mg/g, Propylene Glycol + 0.75 eq HCl, 1 wk): 95.2 % claim
- Cmax [3, 4]: 4.06 ± 0.49 µM
- Tmax [3, 4]: 3.33 ± 1.03 h
- AUC(0-t) [3, 4]: 65.4 ± 14.7 µM·h
- Cmax [3, 5]: 3.04 ± 0.44 µM
- Tmax [3, 5]: 3.67 ± 0.82 h
- AUC(0-t) [3, 5]: 49 ± 11.5 µM·h
- Cmax [3, 6]: 4.22 ± 0.54 µM
- Tmax [3, 6]: 4.67 ± 1.63 h
- AUC(0-t) [3, 6]: 69 ± 14.2 µM·h
SMILES: C[C@@H](O[C@H]1CC[C@@H]2CN(C3=CC(=O)CC3)C[C@H]2[C@@H]1c1ccc(F)cc1)c1cc(C(F)(F)F)cc(C(F)(F)F)c1 [Compound I, 3-[(3aR,4R,5S,7aS)-5-{(1R)-1-[3,5-bis(Trifluoromethyl)phenyl]ethoxy}-4-(4-fluorophenyl)-octahydro-2H-isoindol-2-yl]cyclopent-2-en-1-one]
